Measurements reported in patent US8334377B2, “Porphyrin catalysts and methods of use thereof” (The Trustees of Princeton University, priority 2006, dated 2012).

Experiments:
[1] = Determination of peroxynitrite decomposition catalysis: rates of reaction between peroxynitrite and iron porphyrins in phosphate buffer; type: biochemical; conditions: phosphate buffer pH=7.4
Description: To screen compounds for peroxynitrite decomposition catalytic activity of the invention, peroxynitrite is prepared and isolated as its sodium salt by the reaction of acidic hydrogen peroxide with sodium nitrite followed by rapid quenching with NaOH as set out by Halfpenny and Robinson, in J. Chem. Soc., 928-938 (1952). Peroxynitrite has an absorbance maximum at 302 nm with an extinction coefficient of 1670 M^−1 cm^−1. Therefore, it is possible to directly observe the decomposition of peroxynitrite by monitoring the change in absorbance at 302 nm by stop-flow spectrophotometric analysis. For example, the decomposition of peroxynitrite at an accelerated rate (relative to the natural decomposition rate of peroxynitrite) upon the addition of the decomposition catalysts of the invention.
A high rate of peroxynitrite decomposition is an important indicator of biological activity in vitro and in vivo. The rates of reaction between peroxynitrite and various iron porphyrins were measured at several different concentrations of catalyst in phosphate buffer (pH=7.4). The ONOO^− decay rate (M^−1s^−1) for FeTDMImP was determined to be […], and the keat, for FeTDCMImP was measured at 4.6×10^5. In the same studies the decay rates for the iron porphyrins FeTDMImP, FeTDCMImP, FeTDPImP (see, e.g., U.S. Pat. No. 6,448,239) were 1.1×10^6. 4.6×10^5 and 1.9×10^6, respectively.

[2] = Stopped-flow spectrometry of peroxynitrite decomposition, absorption of peroxynitrite at 324 nm monitored; type: biochemical; conditions: pH 7.4 phosphate buffer
Description: FIG. 4 is stopped-flow spectroscopy of peroxynitrite decomposition catalyzed by FeTDCImP (12). (A) diode array scan of 10 μM (12) in pH 7.4 PBS mixed with 600 μM, t=2 s; (B) decay of peroxynitrite monitored at 324 nm, condition that same as in A. It was fitted into a first order kinetics model using KinetAssyst software. Data was average of four parallel experiments.
It was rationalized that the electron-withdrawing cationic feature elevated its catalytic activity as compared to anionic porphyrins, while its electron-donating anionic feature lowered its catalytic activity as compared to cationic porphyrins.

Row | Molecule | decay rates for the iron porphyrins (in the same studies) [1] | keat [1] | second order rate constant of peroxynitrite decomposition [2] [M⁻¹ s⁻¹]
1 | COCCOCCn1cc[n+](CCOCCOC)c1-c1c2nc(c(-c3n(CCOCCOC)cc[n+]3CCOCCOC)c3ccc([n-]3)c(-c3n(CCOCCOC)cc[n+]3CCOCCOC)c3nc(c(-c4n(CCOCCOC)cc[n+]4CCOCCOC)c4ccc1[n-]4)C=C3)C=C2.[Fe+3] [FeTDPImP, iron(III) meso-tetrakis(N,N-di-(2-(2-methoxyethoxy)ethyl)-imidazol-2-yl)porphyrin] | 1.9×10^6 |  | 
2 | iron(III) meso-tetrakis(N,N-dicarboxymethyl)-imidazol-2-yl)porphyrin [FeTDCMImP] | 4.6×10^5 | 4.6×10^5 | 430000
